These compounds were tested against T1, Human recombinant MAO-B (Homo sapiens, UniProt P27338) (assay: MAO-B enzymatic assay (fluorometric, kynuramine)). Details: human recombinant MAO-B expressed in insect cells; kynuramine substrate; values given as bins; read-out: MAO-B (pEC50) (converted).
T1 construct: host or cells: insect cells
T1 sequence (P27338 1-520): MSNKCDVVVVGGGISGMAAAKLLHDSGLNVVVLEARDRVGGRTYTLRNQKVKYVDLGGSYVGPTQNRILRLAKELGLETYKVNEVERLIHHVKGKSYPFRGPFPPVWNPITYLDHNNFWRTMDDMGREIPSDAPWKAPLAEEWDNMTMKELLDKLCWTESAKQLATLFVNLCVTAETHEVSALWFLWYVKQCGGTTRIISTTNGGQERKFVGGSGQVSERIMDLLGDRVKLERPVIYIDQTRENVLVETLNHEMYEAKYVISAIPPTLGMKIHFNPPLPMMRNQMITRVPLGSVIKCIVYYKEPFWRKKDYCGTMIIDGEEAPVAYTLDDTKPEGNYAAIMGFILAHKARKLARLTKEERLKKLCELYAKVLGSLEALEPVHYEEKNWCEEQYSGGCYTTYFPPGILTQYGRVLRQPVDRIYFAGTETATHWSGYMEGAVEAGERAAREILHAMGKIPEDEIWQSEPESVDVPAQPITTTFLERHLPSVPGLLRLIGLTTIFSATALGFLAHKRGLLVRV
Format: biochemical
Experimental: The MAO enzymatic assay was performed according to the fluorometric method described by Matsumoto and colleagues (Matsumoto et al., Clin. Biochem. 1985, 18, 126-129) with the following modifications. Human recombinant MAO-A and MAO-B expressed in insect cells were used. For both assays, test compound and/or vehicle were preincubated with purified enzyme in phosphate buffer pH 7.4 for 15 minutes at 37° C. The reaction was initiated by addition of […] kynuramine. Following a 60 minute incubation period, the reaction was terminated by the addition of 6 N NaOH. The amount of 4-hydroxyquinoline that formed was determined by spectrofluorimetrically at 325 nm/465 nm.
Results were converted to percent inhibition, and the EC50 (M) for each reaction was determined using the XLfit program from IDBS (ID Business Solutions Ltd., 2 Occam Court, Surrey Research Park, Guildford, Surrey, GU2 7QB UK). The EC50 represents the concentration of a compound where 50% of its maximal effect is observed. The pEC50 is defined as the negative logarithm of the EC50; a higher pEC50 value therefore corresponds to higher potency in the assay.
Representative compounds of the invention were evaluated in the MAO-B enzymatic assay. Typically, the compounds of the invention show MAO-B inhibitory properties at a concentration of 0.1 to 10 μM, typically at 5-100%.
As depicted in the following Table, these inhibitory properties were mirrored by pEC50 values ranging from 5 (meaning 10^−5 M or 10 μM) to greater than 7 (meaning less than 10^−7 M or 0.1 μM).

| SMILES | EC50 |
| --- | --- |
| NC(=O)c1cnc2cc(OCc3cccc(F)c3)cnc2c1 [Example 67, 7-[(3-Fluorophenyl)methoxy]-1,5-naphthyridine-3-carboxamide] | < 100 nM |
| NC(=O)c1cnc2cc(OCc3ccc(F)cc3)cnc2c1 [Example 68, 7-((4-Fluorobenzyl)oxy)-1,5-naphthyridine-3-carboxamide] | < 100 nM |
| NC(=O)c1cnc2cc(OCc3cccc(Cl)c3)cnc2c1 [Example 69, 7-((3-Chlorobenzyl)oxy)-1,5-naphthyridine-3-carboxamide] | < 100 nM |
| NC(=O)c1cnc2cc(OCc3ccc(F)c(F)c3)cnc2c1 [Example 70, 7-((3,4-Difluorobenzyl)oxy)-1,5-naphthyridine-3-carboxamide] | < 100 nM |
| NC(=O)c1cnc2cc(OCc3ccc(F)c(Cl)c3)cnc2c1 [Example 71, 7-[(3-Chloro-4-fluorophenyl)methoxy]-1,5-naphthyridine-3-carboxamide] | < 100 nM |
| CNC(=O)c1cnc2cc(OCc3cccc(Cl)c3)cnc2c1 [Example 72, 7-[(3-Chlorophenyl)methoxy]-N-methyl-1,5-naphthyridine-3-carboxamide] | < 100 nM |
| OCc1cnc2cc(OCc3ccc(F)c(F)c3)cnc2c1 [Example 73, (7-((3,4-Difluorobenzyl)oxy)-1,5-naphthyridin-3-yl)methanol] | < 100 nM |
| N#CCc1cnc2cc(OCc3ccc(F)c(F)c3)cnc2c1 [Example 74, 2-{7-[(3,4-Difluorophenyl)methoxy]-1,5-naphthyridin-3-yl}acetonitrile] | < 100 nM |
| CC(C)(F)c1cnc2cc(OCc3ccc(F)cc3)cnc2c1 [Example 75, 3-[(4-Fluorophenyl)methoxy]-7-(2-fluoropropan-2-yl)-1,5-naphthyridine] | < 100 nM |

Second part, the compound after the results:

| EC50 | SMILES |
| --- | --- |
| < 100 nM | CC(C)(O)c1cnc2cc(OCc3cccc(F)c3)cnc2c1 [Example 76, 2-{7-[(3-Fluorophenyl)methoxy]-1,5-naphthyridin-3-yl}propan-2-ol] |
| < 100 nM | CC(C)(O)c1cnc2cc(OCc3ccc(F)c(F)c3)cnc2c1 [Example 77, 2-{7-[(3,4-Difluorophenyl)methoxy]-1,5-naphthyridin-3-yl}propan-2-ol] |
| < 100 nM | CC(C)(O)c1cnc2cc(OCc3ccc(F)c(Cl)c3)cnc2c1 [Example 78, 2-{7-[(3-Chloro-4-fluorophenyl)methoxy]-1,5-naphthyridin-3-yl}propan-2-ol] |
| < 100 nM | CC(C)(O)c1cnc2cc(OCc3cccc(Cl)c3)cnc2c1 [Example 79, 2-{7-[(3-Chlorophenyl)methoxy]-1,5-naphthyridin-3-yl}propan-2-ol] |
| < 100 nM | NC(=O)Cc1cnc2cc(OCc3ccc(F)c(F)c3)cnc2c1 [Example 80, 2-(7-((3,4-Difluorobenzyl)oxy)-1,5-naphthyridin-3-yl)acetamide] |
| 100 to 1000 nM | NC(=O)Cc1cnc2cc(OCc3cccc(C(F)(F)F)n3)cnc2c1 [Example 81, 2-(7-((6-(Trifluoromethyl)pyridin-2-yl)methoxy)-1,5-naphthyridin-3-yl)acetamide] |
| < 100 nM | NC(=O)CC1Cc2ccc(OCc3cccc(Cl)c3)cc2NC1=O (centres unmarked) [Example 82, 2-(7-((3-Chlorobenzyl)oxy)-2-oxo-1,2,3,4-tetrahydroquinolin-3-yl)acetamide] |
| < 100 nM | NC(=O)Cc1cc2ccc(OCc3cccc(Cl)c3)cc2[nH]c1=O [Example 83, 2-(7-((3-Chlorobenzyl)oxy)-2-oxo-1,2-dihydroquinolin-3-yl)acetamide] |

Reference: patent US9102674B2, “Substituted naphthyridine and quinoline compounds as MAO inhibitors” (DART NEUROSCIENCE (CAYMAN) LTD., priority 2013, dated 2015)
